Reference: US5681800A, “Biodegradable branched synthetic ester base stocks and lubricants formed therefrom” (priority 1995, dated 1997)

Columns and labels:
[1] = background; cited from earlier work
[2] = Brookfield Viscosity at -25° C. (ASTM D-2983); format: physicochemical
Procedure: (§1) The properties listed in Tables 1 and 2 were determined as follows. Pour Point was determined using ASTM # D-97. Brookfield Viscosity at -25° C. was determined using ASTM # D-2983. Kinematic viscosity (@ 40 and 100° C.) was determined using ASTM # D-445. Viscosity index (VI) was determined using ASTM # D-2270. Biodegradation was determined using the Modified Sturm test (OECD Test No. 301B). Solubility with dispersant was determined by blending the desired ratios and looking for haze, cloudiness, two-phases, etc. Engine wear was determined using the NMMA Yamaha CE50S Lubricity test. Oxidation induction time was determined using a high pressure differential scanning calorimeter (HPDSC) having isothermal/isobaric conditions of 220° C. and 500 psi (3.445 MPa) air, respectively. Aquatic toxicity was determined using the Dispersion Aquatic Toxicity test. The acid number was determined using ASTM # D-664. The hydroxyl number of the respective samples was determined by infrared spectroscopy.

Pour Point (ASTM D-97) = format: physicochemical
Procedure: as §1

[3] = Kinematic viscosity (ASTM D-445); format: physicochemical
Procedure: as §1

[4] = Oxidation induction time by HPDSC; format: physicochemical; details: 220° C., 500 psi air
Procedure: *Oxidation Induction Time is the amount of time (in minutes) for a
molecule to oxidatively decompose under a particular set of conditions
using a high pressure differential scanning calorimeter (HPDSC).
The conditions used to evaluate these molecules were: 220° C.

Acid number (ASTM D-664) = format: physicochemical
Procedure: as §1

[5] = Viscosity index (ASTM D-2270); format: physicochemical
Procedure: as §1

Compound	viscosity at 40° C. [1]	Vis @ -25° C. [2]	Pour Point (Pour Point (ASTM D-97))	Vis. @ 40° C. [3]	Vis. @ 100° C. [3]	Oxidation Induction Time [4]	-25° C. Viscosity ([2]; Tables 2 and 4)	Acid Number (Acid number (ASTM D-664))	Viscosity Index [5]
CCCCCCCCCC(=O)OCC(COC(=O)CCCCCCCCC)(COC(=O)CCCCCCCCC)COC(=O)CCCCCCCCC [ester of pentaerythritol and n-C10 acid]	about 38.6 cSt	–	–	–	–	–	–	–	–
CCCCCCCCCCCOC(=O)CCCCC(=O)OCCCCCCCCCCC [Di-undecyladipate]	–	solid	+21 °C	13.92 cSt	2.80 cSt	–	–	–	–
triester of trimethylolpropane and isostearic acid [TMP/iC18]	–	–	-20 °C	78.34 cSt	11.94 cSt	4.29 min	358,000 cps	1.9 mgKOH/g	147
